Test results: US11235976B2, “Nanocarbon-iron composite system as well as composition, preparation method and use thereof” (Chongqing Lummy Pharmaceutical Co., LTD, priority 2017, dated 2022)

Legend:
[1] = system: HCT116 colon cancer cells; test: Cell experiment, cell survival rate; format: cell-based; conditions: 48 h
Method: (§1) Cells growing in a log phase are collected, the concentration of the cell suspension is adjusted, 100 μL of cell suspension is added to each well and the cells are plated (edge wells are filled with sterile PBS) at a density of 1×10^3-10^4 cells/well. The cells are incubated for 24 hours at 37° C. under the condition of 5% CO2, a nanocarbon-iron solution having a concentration gradient (nanocarbon content: 125, 62.5, 15.63 and 3.91 μg/mL; and ferric ion content: 13.65, 6.83, 1.71 and 0.43 μg/mL) is added, and three sub-wells are set. Then the cells are incubated for 48 hours at 37° C. under the condition of 5% CO2. 10 μL of CCK8 solution is added to each well and then the cells are continuously incubated for 2 hours. The absorbance of each well is measured at OD=450 nm with the microplate reader. In addition, a negative control group, nanocarbon control groups having the same concentration and iron preparation control groups having the same concentration are set.
as §1, with “and 1” for “100”, “of a 6-well plate” for “and the cells are plated (edge wells are filled with sterile PBS)”, “3×10^4” for “1×10^3-10^4”, “1.71,” for “1.71 and”, “The” for “10 μL of CCK8 solution is added to each well and then the”, “trypsinized and counted.” for “continuously incubated for 2 hours. The absorbance of each well is measured at OD=450 nm with the microplate reader.”

[2] = system: SGC-7901 stomach cancer cells; test: Cell experiment, cell survival rate; format: cell-based; conditions: 48 h
Method: as §1
as §1, with “and 1” for “100”, “of a 6-well plate” for “and the cells are plated (edge wells are filled with sterile PBS)”, “3×10^4” for “1×10^3-10^4”, “1.71,” for “1.71 and”, “The” for “10 μL of CCK8 solution is added to each well and then the”, “trypsinized and counted.” for “continuously incubated for 2 hours. The absorbance of each well is measured at OD=450 nm with the microplate reader.”

[3] = system: TPC-1 thyroid cancer cells; test: Cell experiment, cell survival rate; format: cell-based; conditions: 48 h
Method: as §1
as §1, with “and 1” for “100”, “of a 6-well plate” for “and the cells are plated (edge wells are filled with sterile PBS)”, “3×10^4” for “1×10^3-10^4”, “1.71,” for “1.71 and”, “The” for “10 μL of CCK8 solution is added to each well and then the”, “trypsinized and counted.” for “continuously incubated for 2 hours. The absorbance of each well is measured at OD=450 nm with the microplate reader.”

A549 lung cancer cells = test: Cell experiment, cell survival rate; format: cell-based; conditions: 48 h
Method: as §1
as §1, with “and 1” for “100”, “of a 6-well plate” for “and the cells are plated (edge wells are filled with sterile PBS)”, “3×10^4” for “1×10^3-10^4”, “1.71,” for “1.71 and”, “The” for “10 μL of CCK8 solution is added to each well and then the”, “trypsinized and counted.” for “continuously incubated for 2 hours. The absorbance of each well is measured at OD=450 nm with the microplate reader.”

[4] = system: SMMC7721 liver cancer cells; test: Cell experiment, cell survival rate; format: cell-based; conditions: SMMC-7721, 48 h
Method: as §1
as §1, with “and 1” for “100”, “of a 6-well plate” for “and the cells are plated (edge wells are filled with sterile PBS)”, “3×10^4” for “1×10^3-10^4”, “1.71,” for “1.71 and”, “The” for “10 μL of CCK8 solution is added to each well and then the”, “trypsinized and counted.” for “continuously incubated for 2 hours. The absorbance of each well is measured at OD=450 nm with the microplate reader.”

[5] = system: Hela cervical cancer cells; test: Cell experiment, cell survival rate; format: cell-based; conditions: 48 h
Method: as §1
as §1, with “and 1” for “100”, “of a 6-well plate” for “and the cells are plated (edge wells are filled with sterile PBS)”, “3×10^4” for “1×10^3-10^4”, “1.71,” for “1.71 and”, “The” for “10 μL of CCK8 solution is added to each well and then the”, “trypsinized and counted.” for “continuously incubated for 2 hours. The absorbance of each well is measured at OD=450 nm with the microplate reader.”

[6] = system: MDA-MB-231 breast cancer cells; test: Cell experiment, cell survival rate; format: cell-based; conditions: 48 h
Method: as §1
as §1, with “and 1” for “100”, “of a 6-well plate” for “and the cells are plated (edge wells are filled with sterile PBS)”, “3×10^4” for “1×10^3-10^4”, “1.71,” for “1.71 and”, “The” for “10 μL of CCK8 solution is added to each well and then the”, “trypsinized and counted.” for “continuously incubated for 2 hours. The absorbance of each well is measured at OD=450 nm with the microplate reader.”

[7] = system: SKOV3 ovarian cancer cells; test: Cell experiment, cell survival rate; format: cell-based; conditions: 48 h
Method: as §1
as §1, with “and 1” for “100”, “of a 6-well plate” for “and the cells are plated (edge wells are filled with sterile PBS)”, “3×10^4” for “1×10^3-10^4”, “1.71,” for “1.71 and”, “The” for “10 μL of CCK8 solution is added to each well and then the”, “trypsinized and counted.” for “continuously incubated for 2 hours. The absorbance of each well is measured at OD=450 nm with the microplate reader.”

[8] = system: murine liver cancer H22 cells; test: Cell experiment, cell survival rate; format: cell-based; conditions: 48 h
Method: as §1
as §1, with “and 1” for “100”, “of a 6-well plate” for “and the cells are plated (edge wells are filled with sterile PBS)”, “3×10^4” for “1×10^3-10^4”, “1.71,” for “1.71 and”, “The” for “10 μL of CCK8 solution is added to each well and then the”, “trypsinized and counted.” for “continuously incubated for 2 hours. The absorbance of each well is measured at OD=450 nm with the microplate reader.”

[9] = system: TPC-1 metastatic lymph nodes; test: Lymph node metastasis inhibition experiment; format: in vivo, nude mouse; conditions: popliteal lymph nodes
Method: (§2) Cells growing in a log phase are collected, the concentration of the cell suspension is adjusted to 3×10^7 cells/mL, the cell suspension is inoculated subcutaneously into the left hind foot pads of each nude mouse at the inoculation volume of 0.05 mL (about 1.5×10^6 cells) and thus a lymph node metastasis mouse model is obtained. The mice are treated when the diameter of the tumor reaches 6-8 mm and there is no ulcer and necrosis. The mice are randomly divided into four groups (10 mice per group): a negative control group (0.9% sodium chloride injection), a nanocarbon control group, an iron preparation control group and a nanocarbon-iron suspension experimental group. 10 days after inoculation, the mice are killed, and popliteal lymph nodes are collected, weighed and fixed for pathological examination.

[10] = system: SKOV3 metastatic lymph nodes; test: Lymph node metastasis inhibition experiment; format: in vivo, nude mouse; conditions: popliteal lymph nodes
Method: as §2

[11] = system: MDA-MB-231 metastatic lymph nodes; test: Lymph node metastasis inhibition experiment; format: in vivo, nude mouse; conditions: popliteal lymph nodes
Method: as §2

[12] = system: SMMC-7721 metastatic lymph nodes; test: Lymph node metastasis inhibition experiment; format: in vivo, nude mouse; conditions: popliteal lymph nodes
Method: as §2

[13] = system: Hela metastatic lymph nodes; test: Lymph node metastasis inhibition experiment; format: in vivo, nude mouse; conditions: popliteal lymph nodes
Method: as §2

[14] = system: HCT116 metastatic lymph nodes; test: Lymph node metastasis inhibition experiment; format: in vivo, nude mouse; conditions: popliteal lymph nodes
Method: as §2

[15] = system: A549 metastatic lymph nodes; test: Lymph node metastasis inhibition experiment; format: in vivo, nude mouse; conditions: popliteal lymph nodes
Method: as §2

[16] = system: SGC-7901 metastatic lymph nodes; test: Lymph node metastasis inhibition experiment; format: in vivo, nude mouse; conditions: popliteal lymph nodes
Method: as §2

[17] = system: subcutaneous transplantation tumors of 9 types of cancer cells; test: Tumor growth inhibition experiments, subcutaneous transplantation tumors; format: in vivo, mice; conditions: FIGS. 4-39
Method: Cells growing in a log phase are collected, the concentration of the cell suspension is adjusted to 3×10^7 cells/mL, and the cell suspension is inoculated subcutaneously into the right upper extremities of nude mice at the inoculation dosage of 0.1 mL (about 3×10^6 cells) per mouse. When the average tumor volume of the inoculated mice reaches 100 mm^3, the tumor-bearing mice are randomly divided into the following groups (8 nude mice per group): a negative control group (0.9% sodium chloride injection), a nanocarbon control group, an iron preparation control group, a nanocarbon-iron suspension experimental group, and a cis-platinum control group (intraperitoneal injection at the dosage of 5 mg/kg). The above various drugs are injected into the tumors. The tumor volume changes are recorded, and the formula for calculating the volume is Volume=(length×the square of width)/2.
Milky white and thick ascites is extracted from the H22 tumor-bearing mice, the concentration of the cell suspension is adjusted to be 3×10^7 cells/mL, 0.1 mL of cell suspension (about 3×10^6 cells) is inoculated subcutaneously into the right upper extremity of each of Kunming mice. When the average tumor volume of the inoculated mice reaches 100 mm^3, the tumor-bearing mice are randomly divided into the following groups (8 mice per group): a negative control group (0.9% sodium chloride injection), a nanocarbon control group, an iron preparation control group, a nanocarbon-iron suspension experimental group, and a cis-platinum control group (intraperitoneal injection at the dosage of 5 mg/kg). The above various drugs are injected into the tumors. The tumor volume changes are recorded, and the formula for calculating the volume is Volume=(length×the square of width)/2.

[18] = system: lymph node metastasis of 9 types of tumor cells; test: Lymph node metastasis inhibition experiment, summary; format: in vivo, mice
Method: as §2
(§3) Milky white and thick ascites is extracted from the H22 tumor-bearing mice, the concentration is adjusted to be 3×10^7 cells/mL, 0.05 mL of cell suspension (about 1.5×10^6 cells) is inoculated subcutaneously into the left hind foot pads of each Kunming mouse, and thus a lymph node metastasis mouse model is obtained. The mice are treated when the diameter of the tumor reaches 6-8 mm and there is no ulcer and necrosis. The mice are randomly divided into four groups (10 mice per group): a negative control group (0.9% sodium chloride injection), a nanocarbon control group, an iron preparation control group and a nanocarbon-iron suspension experimental group. 10 days after inoculation, the mice are killed, and popliteal lymph nodes are collected, weighed and fixed for pathological examination.

[19] = system: H22 metastatic lymph nodes; test: Lymph node metastasis inhibition experiment; format: in vivo, Kunming mouse; conditions: popliteal lymph nodes
Method: as §3

[20] = iron preparation alone 0.43 μg/mL
[21] = iron preparation alone 1.71 μg/mL
[22] = iron preparation alone 6.83 μg/mL
[23] = iron preparation alone 13.65 μg/mL

ferrous sulfate
Cell Survival Rate [1, 20]: 98.32%
Cell Survival Rate [1, 21]: 100%
Cell Survival Rate [1, 22]: 97.68%
Cell Survival Rate [1, 23]: 94.07%
Cell Survival Rate [2, 20]: 100%
Cell Survival Rate [2, 21]: 93.78%
Cell Survival Rate [2, 22]: 98.42%
Cell Survival Rate [2, 23]: 100%
Cell Survival Rate [3, 20]: 100%
Cell Survival Rate [3, 21]: 100%
Cell Survival Rate [3, 22]: 98.75%
Cell Survival Rate [3, 23]: 93.64%
Cell Survival Rate (A549 lung cancer cells; [20]): 100%
Cell Survival Rate (A549 lung cancer cells; [21]): 94.18%
Cell Survival Rate (A549 lung cancer cells; [22]): 95.12%
Cell Survival Rate (A549 lung cancer cells; [23]): 100%
Cell Survival Rate [4, 20]: 100%
Cell Survival Rate [4, 21]: 100%
Cell Survival Rate [4, 22]: 100%
Cell Survival Rate [4, 23]: 97.46%
Cell Survival Rate [5, 20]: 100%
Cell Survival Rate [5, 21]: 100%
Cell Survival Rate [5, 22]: 100%
Cell Survival Rate [5, 23]: 93.99%
Cell Survival Rate [6, 20]: 100%
Cell Survival Rate [6, 21]: 100%
Cell Survival Rate [6, 22]: 100%
Cell Survival Rate [6, 23]: 100%
Cell Survival Rate [7, 20]: 97.89%
Cell Survival Rate [7, 21]: 100%
Cell Survival Rate [7, 22]: 95.78%
Cell Survival Rate [7, 23]: 96.47%
Cell Survival Rate [8, 20]: 100%
Cell Survival Rate [8, 21]: 95.24%
Cell Survival Rate [8, 22]: 97.16%
Cell Survival Rate [8, 23]: 100%
Weight of Lymph Node [9]: 35.71 ± 13.45 mg
Weight of Lymph Node [10]: 35.62 ± 6.94 mg
Weight of Lymph Node [11]: 40.18 ± 11.14 mg
Weight of Lymph Node [12]: 50.19 ± 18.73 mg
Weight of Lymph Node [13]: 29.48 ± 6.46 mg
Weight of Lymph Node [14]: 48.12 ± 10.58 mg
Weight of Lymph Node [15]: 44.97 ± 16.53 mg
Weight of Lymph Node [16]: 50.12 ± 20.94 mg
inhibition effect on growth of 9 types of tumors [17]: do not have an inhibition effect
inhibition effect on the metastatic lymph nodes [18]: do not have an inhibition effect
Weight of Lymph Node [19]: 44.27 ± 20.69 mg
